{
  "source": "ChEMBL document CHEMBL5724914",
  "about": "“Linking interpersonal differences in gut microbiota composition and drug biotransformation activity” (2024); note: call rule not given here",
  "key": {"[1]": {"test": "(§1) The drug is tested on Z-024 corresponding to pig gut metagenome with ENA study accession number: PRJEB37062 and ENA sample accession number: ERS12561823 for biotransformation under anaerobic condition. The drug concentrations were measured over 9 timepoints collected between 0 and 24 hours of incubation by liquid-chromatography-coupled mass spectrometry (LC–MS)", "conditions": "2 µM"}, "[2]": {"test": "as §1, with “Z-020” for “Z-024”, “rabbit” for “pig”, “ERS12561819” for “ERS12561823”", "conditions": "2 µM"}, "[3]": {"test": "as §1, with “Z-011” for “Z-024”, “mouse” for “pig”, “ERS12561811” for “ERS12561823”", "conditions": "2 µM"}, "[4]": {"test": "as §1, with “Z-003” for “Z-024”, “ERS12561803” for “ERS12561823”", "conditions": "2 µM"}, "[5]": {"test": "as §1, with “Z-002” for “Z-024”, “rabbit” for “pig”, “ERS12561802” for “ERS12561823”", "conditions": "2 µM"}, "[6]": {"test": "as §1, with “Z-001” for “Z-024”, “mouse” for “pig”, “ERS12561801” for “ERS12561823”", "conditions": "2 µM"}, "[7]": {"test": "as §1, with “WLS-370” for “Z-024”, “human” for “pig”, “ERS12561793” for “ERS12561823”", "conditions": "2 µM"}, "[8]": {"test": "as §1, with “WLS-350” for “Z-024”, “human” for “pig”, “ERS12561789” for “ERS12561823”", "conditions": "2 µM"}, "[9]": {"test": "as §1, with “WLS-240” for “Z-024”, “human” for “pig”, “ERS12561773” for “ERS12561823”", "conditions": "2 µM"}, "[10]": {"test": "as §1, with “WLS-220” for “Z-024”, “human” for “pig”, “ERS12561769” for “ERS12561823”", "conditions": "2 µM"}, "[11]": {"test": "as §1, with “WLS-170” for “Z-024”, “human” for “pig”, “ERS12561762” for “ERS12561823”", "conditions": "2 µM"}, "[12]": {"test": "as §1, with “WLS-098” for “Z-024”, “human” for “pig”, “ERS12561754” for “ERS12561823”", "conditions": "2 µM"}, "[13]": {"test": "as §1, with “WLS-090” for “Z-024”, “human” for “pig”, “ERS12561753” for “ERS12561823”", "conditions": "2 µM"}, "[14]": {"test": "as §1, with “WLS-086” for “Z-024”, “human” for “pig”, “ERS12561752” for “ERS12561823”", "conditions": "2 µM"}, "[15]": {"test": "as §1, with “WLS-077” for “Z-024”, “human” for “pig”, “ERS12561750” for “ERS12561823”", "conditions": "2 µM"}, "[16]": {"test": "as §1, with “WLS-073” for “Z-024”, “human” for “pig”, “ERS12561749” for “ERS12561823”", "conditions": "2 µM"}, "[17]": {"test": "as §1, with “WLS-052” for “Z-024”, “human” for “pig”, “ERS12561747” for “ERS12561823”", "conditions": "2 µM"}, "[18]": {"test": "as §1, with “WLS-039” for “Z-024”, “human” for “pig”, “ERS12561746” for “ERS12561823”", "conditions": "2 µM"}, "[19]": {"test": "as §1, with “WLS-038” for “Z-024”, “human” for “pig”, “ERS12561745” for “ERS12561823”", "conditions": "2 µM"}, "[20]": {"test": "as §1, with “WLS-027” for “Z-024”, “human” for “pig”, “ERS12561744” for “ERS12561823”", "conditions": "2 µM"}, "[21]": {"test": "as §1, with “WLS-010” for “Z-024”, “human” for “pig”, “ERS12561743” for “ERS12561823”", "conditions": "2 µM"}, "[22]": {"test": "as §1, with “WLS-007” for “Z-024”, “human” for “pig”, “ERS12561742” for “ERS12561823”", "conditions": "2 µM"}, "[23]": {"test": "as §1, with “WLS-006” for “Z-024”, “human” for “pig”, “ERS12561741” for “ERS12561823”", "conditions": "2 µM"}, "[24]": {"conditions": "human gut metagenome, 24 h, 2 µM"}, "[25]": {"conditions": "human gut metagenome, 24 h, 2 µM", "remark": "listed apart in the source"}, "[26]": {"conditions": "human gut metagenome, 24 h, 2 µM", "remark": "listed apart in the source"}, "[27]": {"conditions": "human gut metagenome, 24 h, 2 µM", "remark": "listed apart in the source"}, "[28]": {"conditions": "human gut metagenome, 24 h, 2 µM", "remark": "listed apart in the source"}, "[29]": {"conditions": "human gut metagenome, 24 h, 2 µM", "remark": "listed apart in the source"}, "[30]": {"conditions": "human gut metagenome, 24 h, 2 µM", "remark": "listed apart in the source"}, "[31]": {"conditions": "human gut metagenome, 24 h, 2 µM", "remark": "listed apart in the source"}, "[32]": {"conditions": "human gut metagenome, 24 h, 2 µM", "remark": "listed apart in the source"}, "[33]": {"conditions": "human gut metagenome, 24 h, 2 µM", "remark": "listed apart in the source"}, "[34]": {"conditions": "human gut metagenome, 24 h, 2 µM", "remark": "listed apart in the source"}, "[35]": {"conditions": "human gut metagenome, 24 h, 2 µM", "remark": "listed apart in the source"}, "[36]": {"conditions": "human gut metagenome, 24 h, 2 µM", "remark": "listed apart in the source"}, "[37]": {"conditions": "human gut metagenome, 24 h, 2 µM", "remark": "listed apart in the source"}, "[38]": {"conditions": "human gut metagenome, 24 h, 2 µM", "remark": "listed apart in the source"}, "[39]": {"conditions": "human gut metagenome, 24 h, 2 µM", "remark": "listed apart in the source"}, "[40]": {"conditions": "human gut metagenome, 24 h, 2 µM", "remark": "listed apart in the source"}, "[41]": {"conditions": "human gut metagenome, 24 h, 2 µM", "remark": "listed apart in the source"}, "[42]": {"conditions": "human gut metagenome, 24 h, 2 µM", "remark": "listed apart in the source"}, "[43]": {"conditions": "human gut metagenome, 24 h, 2 µM", "remark": "listed apart in the source"}, "[44]": {"conditions": "human gut metagenome, 24 h, 2 µM", "remark": "listed apart in the source"}, "[45]": {"conditions": "human gut metagenome, 24 h, 2 µM", "remark": "listed apart in the source"}, "[46]": {"conditions": "human gut metagenome, 24 h, 2 µM", "remark": "listed apart in the source"}, "[47]": {"conditions": "human gut metagenome, 24 h, 2 µM", "remark": "listed apart in the source"}, "[48]": {"conditions": "human gut metagenome, 24 h, 2 µM", "remark": "listed apart in the source"}, "[49]": {"conditions": "human gut metagenome, 24 h, 2 µM", "remark": "listed apart in the source"}, "[50]": {"conditions": "human gut metagenome, 24 h, 2 µM", "remark": "listed apart in the source"}, "[51]": {"conditions": "human gut metagenome, 24 h, 2 µM", "remark": "listed apart in the source"}, "[52]": {"conditions": "human gut metagenome, 24 h, 2 µM", "remark": "listed apart in the source"}, "[53]": {"conditions": "human gut metagenome, 24 h, 2 µM", "remark": "listed apart in the source"}, "[54]": {"conditions": "human gut metagenome, 24 h, 2 µM", "remark": "listed apart in the source"}},
  "data": [
    {"smiles": "N[C@@H](Cc1ccc(N(CCCl)CCCl)cc1)C(=O)O", "values": [
      {"measurement": "Bacterial Biotransformation", "setting": "[1]", "result": "Compound metabolized"},
      {"measurement": "Bacterial Biotransformation", "setting": "[2]", "result": "Compound metabolized"},
      {"measurement": "Bacterial Biotransformation", "setting": "[3]", "result": "Compound metabolized"},
      {"measurement": "Bacterial Biotransformation", "setting": "[4]", "result": "Compound metabolized"},
      {"measurement": "Bacterial Biotransformation", "setting": "[5]", "result": "Compound metabolized"},
      {"measurement": "Bacterial Biotransformation", "setting": "[6]", "result": "Compound metabolized"},
      {"measurement": "Bacterial Biotransformation", "setting": "[7]", "result": "Compound NOT metabolized"},
      {"measurement": "Bacterial Biotransformation", "setting": "[8]", "result": "Compound NOT metabolized"},
      {"measurement": "Bacterial Biotransformation", "setting": "[9]", "result": "Compound NOT metabolized"},
      {"measurement": "Bacterial Biotransformation", "setting": "[10]", "result": "Compound metabolized"},
      {"measurement": "Bacterial Biotransformation", "setting": "[11]", "result": "Compound metabolized"},
      {"measurement": "Bacterial Biotransformation", "setting": "[12]", "result": "Compound metabolized"},
      {"measurement": "Bacterial Biotransformation", "setting": "[13]", "result": "Compound metabolized"},
      {"measurement": "Bacterial Biotransformation", "setting": "[14]", "result": "Compound metabolized"},
      {"measurement": "Bacterial Biotransformation", "setting": "[15]", "result": "Compound metabolized"},
      {"measurement": "Bacterial Biotransformation", "setting": "[16]", "result": "Compound metabolized"},
      {"measurement": "Bacterial Biotransformation", "setting": "[17]", "result": "Compound metabolized"},
      {"measurement": "Bacterial Biotransformation", "setting": "[18]", "result": "Compound metabolized"},
      {"measurement": "Bacterial Biotransformation", "setting": "[19]", "result": "Compound metabolized"},
      {"measurement": "Bacterial Biotransformation", "setting": "[20]", "result": "Compound metabolized"},
      {"measurement": "Bacterial Biotransformation", "setting": "[21]", "result": "Compound metabolized"},
      {"measurement": "Bacterial Biotransformation", "setting": "[22]", "result": "Compound metabolized"},
      {"measurement": "Bacterial Biotransformation", "setting": "[23]", "result": "Compound metabolized"},
      {"measurement": "Bacterial Biotransformation", "setting": "[24]", "result": "Compound NOT metabolized"},
      {"measurement": "Bacterial Biotransformation", "setting": "[25]", "result": "Compound NOT metabolized"},
      {"measurement": "Bacterial Biotransformation", "setting": "[26]", "result": "Compound NOT metabolized"},
      {"measurement": "Bacterial Biotransformation", "setting": "[27]", "result": "Compound NOT metabolized"},
      {"measurement": "Bacterial Biotransformation", "setting": "[28]", "result": "Compound metabolized"},
      {"measurement": "Bacterial Biotransformation", "setting": "[29]", "result": "Compound metabolized"},
      {"measurement": "Bacterial Biotransformation", "setting": "[30]", "result": "Compound NOT metabolized"},
      {"measurement": "Bacterial Biotransformation", "setting": "[31]", "result": "Compound NOT metabolized"},
      {"measurement": "Bacterial Biotransformation", "setting": "[32]", "result": "Compound NOT metabolized"},
      {"measurement": "Bacterial Biotransformation", "setting": "[33]", "result": "Compound NOT metabolized"},
      {"measurement": "Bacterial Biotransformation", "setting": "[34]", "result": "Compound metabolized"},
      {"measurement": "Bacterial Biotransformation", "setting": "[35]", "result": "Compound metabolized"},
      {"measurement": "Bacterial Biotransformation", "setting": "[36]", "result": "Compound metabolized"},
      {"measurement": "Bacterial Biotransformation", "setting": "[37]", "result": "Compound metabolized"},
      {"measurement": "Bacterial Biotransformation", "setting": "[38]", "result": "Compound metabolized"},
      {"measurement": "Bacterial Biotransformation", "setting": "[39]", "result": "Compound metabolized"},
      {"measurement": "Bacterial Biotransformation", "setting": "[40]", "result": "Compound metabolized"},
      {"measurement": "Bacterial Biotransformation", "setting": "[41]", "result": "Compound metabolized"},
      {"measurement": "Bacterial Biotransformation", "setting": "[42]", "result": "Compound metabolized"},
      {"measurement": "Bacterial Biotransformation", "setting": "[43]", "result": "Compound metabolized"},
      {"measurement": "Bacterial Biotransformation", "setting": "[44]", "result": "Compound metabolized"},
      {"measurement": "Bacterial Biotransformation", "setting": "[45]", "result": "Compound metabolized"},
      {"measurement": "Bacterial Biotransformation", "setting": "[46]", "result": "Compound metabolized"},
      {"measurement": "Bacterial Biotransformation", "setting": "[47]", "result": "Compound NOT metabolized"},
      {"measurement": "Bacterial Biotransformation", "setting": "[48]", "result": "Compound metabolized"},
      {"measurement": "Bacterial Biotransformation", "setting": "[49]", "result": "Compound NOT metabolized"},
      {"measurement": "Bacterial Biotransformation", "setting": "[50]", "result": "Compound metabolized"},
      {"measurement": "Bacterial Biotransformation", "setting": "[51]", "result": "Compound metabolized"},
      {"measurement": "Bacterial Biotransformation", "setting": "[52]", "result": "Compound NOT metabolized"},
      {"measurement": "Bacterial Biotransformation", "setting": "[53]", "result": "Compound NOT metabolized"},
      {"measurement": "Bacterial Biotransformation", "setting": "[54]", "result": "Compound metabolized"}
    ]}
  ]
}
